Test results from US20030135065A1, “Process for the production of L-DOPA ethyl ester” (priority 2001, published 2003).

Tests used:
[1] = Stability of L-DOPA ethyl ester forms; format: physicochemical
Excerpt: (§1) Great Britain Patent No. 1,364,505 and corresponding U.S. Pat. No. 3,803,120, assigned to Hoffman-La Roche, describe the synthesis of L-DOPA ethyl ester hydrochloride salt and free base. This compound is used as an intermediate in the synthesis of other compounds and is not characterized in the patent specification. […] This material cannot be used for pharmaceutical compositions. Likewise, the L-DOPA ethyl ester free base as prepared in these two patents is impure and not stable and thus also is not suitable for pharmaceutical compositions. At best it can be used as a synthetic intermediate for further chemical synthesis as described in the cited patents.
(§2) L-DOPA ethyl ester as free base obtained by this process is stable, non-hygroscopic, and crystalline. The LDEE free base has a particle size from 5 to 300 micron and an average particle size of 80 micron.

[2] = Hygroscopicity of L-DOPA ethyl ester forms; format: physicochemical
Excerpt: as §1, §2

[3] = composition produced according to the Milman process (U.S. Pat. No. 5,354,885); 6 months at 40° C.; cited from earlier work
[4] = Particle size of LDEE free base; format: physicochemical; conditions: free base obtained by this process
Excerpt: as §2

[5] = material synthesized by the methods of GB 1,364,505 / U.S. Pat. No. 3,803,120
[6] = free base obtained by this process

Row | SMILES | stability [1, 5] | hygroscopicity [2, 5] | L-DOPA ethyl ester remaining after incubation [3] | stability [1, 6] | average particle size [4] | hygroscopicity [2, 6]
1 | CCOC(=O)[C@@H](N)Cc1ccc(O)c(O)c1.Cl [L-DOPA ethyl ester hydrochloride salt, L-DOPA ethyl ester hydrochloride, reference compound] | not stable | hygroscopic |  |  |  | 
2 | CCOC(=O)[C@@H](N)Cc1ccc(O)c(O)c1 [L-DOPA ethyl ester] | not stable |  | at least 97 % by weight | stable | 80 micron | non-hygroscopic
